From PubChem BioAssay (NCI)
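All cell lines were grown in 96-well plates and treated with compound for 48 hours. GI50: concentration for 50% inhibition of growth. At the TGI there is no net growth.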

What was measured:
Assay in all cases: NCI anticancer screen, dose series, 48 h
HOP-92 NSCLC = tested on: HOP-92 NSCLC
SK-MEL-5 melanoma = tested on: SK-MEL-5 melanoma
HCT-116 colon = tested on: HCT-116 colon
ACHN renal = tested on: ACHN renal
T-47D breast = tested on: T-47D breast
COLO 205 colon = tested on: COLO 205 colon
MALME-3M melanoma = tested on: MALME-3M melanoma
A498 renal = tested on: A498 renal
NCI-H23 lung = tested on: NCI-H23 lung
DU-145 prostate = tested on: DU-145 prostate
MDA-MB-231 breast = tested on: MDA-MB-231 breast
SF-268 CNS = tested on: SF-268 CNS
EKVX NSCLC = tested on: EKVX NSCLC
SF-295 CNS = tested on: SF-295 CNS
OVCAR-4 ovarian = tested on: OVCAR-4 ovarian
CAKI-1 renal = tested on: CAKI-1 renal
RXF 393 renal = tested on: RXF 393 renal
HS 578T breast = tested on: HS 578T breast
PC-3 prostate = tested on: PC-3 prostate
U251 CNS = tested on: U251 CNS
OVCAR-3 ovarian = tested on: OVCAR-3 ovarian
SK-OV-3 ovarian = tested on: SK-OV-3 ovarian
786-0 renal = tested on: 786-0 renal
CCRF-CEM leukemia = tested on: CCRF-CEM leukemia
HOP-62 NSCLC = tested on: HOP-62 NSCLC
SNB-75 CNS = tested on: SNB-75 CNS
A549 NSCLC = tested on: A549 NSCLC
SK-MEL-28 melanoma = tested on: SK-MEL-28 melanoma
UO-31 renal = tested on: UO-31 renal
OVCAR-5 ovarian = tested on: OVCAR-5 ovarian
HCC-2998 colon = tested on: HCC-2998 colon
MOLT-4 leukemia = tested on: MOLT-4 leukemia
MDA-MB-435 = tested on: MDA-MB-435
NCI-H522 lung = tested on: NCI-H522 lung
IGROV1 ovarian = tested on: IGROV1 ovarian
K-562 leukemia = tested on: K-562 leukemia
LOX IMVI melanoma = tested on: LOX IMVI melanoma
BT-549 breast = tested on: BT-549 breast
KM12 colon = tested on: KM12 colon
NCI-H460 lung = tested on: NCI-H460 lung
UACC-62 melanoma = tested on: UACC-62 melanoma
HL-60(TB) leukemia = tested on: HL-60(TB) leukemia
TK-10 renal = tested on: TK-10 renal
MCF7 breast = tested on: MCF7 breast
SN12C renal = tested on: SN12C renal
NCI-H226 lung = tested on: NCI-H226 lung
SW-620 colon = tested on: SW-620 colon
SR leukemia = tested on: SR leukemia
MDA-MB-468 breast = tested on: MDA-MB-468 breast
SNB-19 CNS = tested on: SNB-19 CNS
UACC-257 melanoma = tested on: UACC-257 melanoma
RPMI-8226 leukemia = tested on: RPMI-8226 leukemia
OVCAR-8 ovarian = tested on: OVCAR-8 ovarian
SF-539 CNS = tested on: SF-539 CNS
HCT-15 colon = tested on: HCT-15 colon
M14 melanoma = tested on: M14 melanoma
HT29 colon = tested on: HT29 colon

Compound: Cc1sc(C(NC(=O)OCCn2c([N+](=O)[O-])cnc2C)C(F)(F)Cl)nc1-c1ccc(OC(F)(F)F)cc1 (centres undefined)
- GI50 (HOP-92 NSCLC): 2.86 µM
- TGI (HOP-92 NSCLC): 11.6 µM
- GI50 (SK-MEL-5 melanoma): 3.89 µM
- TGI (SK-MEL-5 melanoma): 14.7 µM
- GI50 (HCT-116 colon): 4.78 µM
- TGI (HCT-116 colon): 20.1 µM
- GI50 (ACHN renal): 3.04 µM
- TGI (ACHN renal): 11.3 µM
- GI50 (T-47D breast): 3.11 µM
- TGI (T-47D breast): 12.8 µM
- GI50 (COLO 205 colon): 5.8 µM
- TGI (COLO 205 colon): 21.3 µM
- GI50 (MALME-3M melanoma): 6.79 µM
- TGI (MALME-3M melanoma): 21.8 µM
- GI50 (A498 renal): 4.98 µM
- TGI (A498 renal): 20.6 µM
- GI50 (NCI-H23 lung): 7.46 µM
- TGI (NCI-H23 lung): 22.7 µM
- GI50 (DU-145 prostate): 4.97 µM
- TGI (DU-145 prostate): 17.9 µM
- GI50 (MDA-MB-231 breast): 3.37 µM
- TGI (MDA-MB-231 breast): 12.3 µM
- GI50 (SF-268 CNS): 3.6 µM
- TGI (SF-268 CNS): 16.3 µM
- GI50 (EKVX NSCLC): 2.8 µM
- TGI (EKVX NSCLC): 12.6 µM
- GI50 (SF-295 CNS): 3.26 µM
- TGI (SF-295 CNS): 13.7 µM
- GI50 (OVCAR-4 ovarian): 3.85 µM
- TGI (OVCAR-4 ovarian): 15.7 µM
- GI50 (CAKI-1 renal): 2.83 µM
- TGI (CAKI-1 renal): 11.8 µM
- GI50 (RXF 393 renal): 2.65 µM
- TGI (RXF 393 renal): 12.6 µM
- GI50 (HS 578T breast): 2.55 µM
- TGI (HS 578T breast): 33 µM
- GI50 (PC-3 prostate): 2.65 µM
- TGI (PC-3 prostate): 14.8 µM
- GI50 (U251 CNS): 5.38 µM
- TGI (U251 CNS): 19.2 µM
- GI50 (OVCAR-3 ovarian): 3.68 µM
- TGI (OVCAR-3 ovarian): 13.3 µM
- GI50 (SK-OV-3 ovarian): 12 µM
- TGI (SK-OV-3 ovarian): 26.2 µM
- GI50 (786-0 renal): 7.35 µM
- TGI (786-0 renal): 20.7 µM
- GI50 (CCRF-CEM leukemia): 2.32 µM
- TGI (CCRF-CEM leukemia): 16.4 µM
- GI50 (HOP-62 NSCLC): 8.7 µM
- TGI (HOP-62 NSCLC): 23.9 µM
- GI50 (SNB-75 CNS): 1.43 µM
- TGI (SNB-75 CNS): 14.2 µM
- GI50 (A549 NSCLC): 4.57 µM
- TGI (A549 NSCLC): 20.4 µM
- GI50 (SK-MEL-28 melanoma): 4.84 µM
- TGI (SK-MEL-28 melanoma): 17.1 µM
- GI50 (UO-31 renal): 2.77 µM
- TGI (UO-31 renal): 13.5 µM
- GI50 (OVCAR-5 ovarian): 4.28 µM
- TGI (OVCAR-5 ovarian): 17.6 µM
- GI50 (HCC-2998 colon): 4.8 µM
- TGI (HCC-2998 colon): 17 µM
- GI50 (MOLT-4 leukemia): 3.74 µM
- TGI (MOLT-4 leukemia): 16.5 µM
- GI50 (MDA-MB-435): 3.87 µM
- TGI (MDA-MB-435): 15.5 µM
- GI50 (NCI-H522 lung): 3.82 µM
- TGI (NCI-H522 lung): 15.3 µM
- GI50 (IGROV1 ovarian): 6.15 µM
- TGI (IGROV1 ovarian): 19.5 µM
- GI50 (K-562 leukemia): 3.62 µM
- TGI (K-562 leukemia): > 100 µM
- GI50 (LOX IMVI melanoma): 3.42 µM
- TGI (LOX IMVI melanoma): 13.6 µM
- GI50 (BT-549 breast): 5.57 µM
- TGI (BT-549 breast): 18.6 µM
- GI50 (KM12 colon): 3.63 µM
- TGI (KM12 colon): 14.7 µM
- GI50 (NCI-H460 lung): 3.31 µM
- TGI (NCI-H460 lung): > 100 µM
- GI50 (UACC-62 melanoma): 3.53 µM
- TGI (UACC-62 melanoma): 15.4 µM
- GI50 (HL-60(TB) leukemia): 4.06 µM
- TGI (HL-60(TB) leukemia): 24.1 µM
- GI50 (TK-10 renal): 3.96 µM
- TGI (TK-10 renal): 15.8 µM
- GI50 (MCF7 breast): 2.68 µM
- TGI (MCF7 breast): 10.3 µM
- GI50 (SN12C renal): 4.47 µM
- TGI (SN12C renal): 15.9 µM
- GI50 (NCI-H226 lung): 3.78 µM
- TGI (NCI-H226 lung): 16.7 µM
- GI50 (SW-620 colon): 7.32 µM
- TGI (SW-620 colon): > 100 µM
- GI50 (SR leukemia): 3.58 µM
- TGI (SR leukemia): 30.6 µM
- GI50 (MDA-MB-468 breast): 2.37 µM
- TGI (MDA-MB-468 breast): 8.73 µM
- GI50 (SNB-19 CNS): 4.93 µM
- TGI (SNB-19 CNS): 17.4 µM
- GI50 (UACC-257 melanoma): 7.75 µM
- TGI (UACC-257 melanoma): 22.5 µM
- GI50 (RPMI-8226 leukemia): 3.41 µM
- TGI (RPMI-8226 leukemia): 54.6 µM
- GI50 (OVCAR-8 ovarian): 7.09 µM
- TGI (OVCAR-8 ovarian): 22.6 µM
- GI50 (SF-539 CNS): 9.15 µM
- TGI (SF-539 CNS): 21.4 µM
- GI50 (HCT-15 colon): 3.19 µM
- TGI (HCT-15 colon): 12.1 µM
- GI50 (M14 melanoma): 4.56 µM
- TGI (M14 melanoma): 18.2 µM
- GI50 (HT29 colon): 3.56 µM
- TGI (HT29 colon): 13 µM
